In ChEMBL document CHEMBL5321213, “Nicolaioidesin C: An Antiausterity Agent Shows Promising Antitumor Activity in a Pancreatic Cancer Xenograft Mouse Model” (J Nat Prod, 2023):
The source made the active and inactive calls. No cut-off for these calls is given here.

Tests used:
[1] = tested on: MIA PaCa-2; assay: Antitumor activity against human MIA PaCa-2 cells xenografted in athymic BALB/c-nu mouse assessed as fold change in N-acetylneuraminicacid level in tumor at 10 mg/kg/day, ip administered five times per week for 4 weeks by LC-MS analysis; type: functional
[2] = tested on: MIA PaCa-2; assay: Antitumor activity against human MIA PaCa-2 cells xenografted in athymic BALB/c-nu mouse assessed as fold change in phenyl alanine level in tumor at 10 mg/kg/day, ip administered five times per week for 4 weeks by LC-MS analysis; type: functional
[3] = tested on: PANC-1; assay: Preferential cytotoxicity against human PANC-1 cells in nutrient-deprived medium assessed as alteration in cell morphology by measuring cell rounding at 5 uM measured after 24 hrs by acridine orange and ethidium bromide dual fluorescent staining based imaging analysis; type: functional
[4] = tested on: PANC-1; assay: Inhibition of autophagy in human PANC-1 cells in nutrient-deprived medium assessed as downregulation of LC3-I protein expression measured after 6 hrs by Western blot analysis; type: functional, cell-based; settings: dose 5-20 µM
[5] = tested on: PANC-1; assay: Inhibition of autophagy in human PANC-1 cells in nutrient-deprived medium assessed as downregulation of LC3-II protein expression measured after 6 hrs by Western blot analysis; type: functional, cell-based; settings: dose 5-20 µM
[6] = tested on: MIA PaCa-2; assay: Inhibition of Akt/mTOR signaling pathway in human MIA PaCa-2 cells in nutrient-deprived medium assessed as reduction in AKT phosphorylation at S473 residue measured after 6 hrs by Western blot analysis; type: cell-based; settings: dose 5-20 µM
[7] = tested on: MIA PaCa-2; assay: Inhibition of autophagy in human MIA PaCa-2 cells in nutrient-deprived medium assessed as downregulation of LC3-II protein expression measured after 6 hrs by Western blot analysis; type: functional, cell-based; settings: dose 5-20 µM
[8] = tested on: MIA PaCa-2; assay: Antimetastatic activity in human MIA PaCa-2 cells in nutrient-rich medium assessed as open wound area at 20 uM measured every 15 mins for 24 hrs by live cell imaging analysis (reference value: 62%); type: functional
[9] = tested on: PANC-1; assay: Antimetastatic activity in human PANC-1 cells in DMEM media assessed as inhibition of colony formation at 20 uM incubated for 24 hrs followed by replacement with fresh medium and measured after 10 days by crystal violet staining-based assay relative to control; type: functional
[10] = tested on: MIA PaCa-2; assay: Antimetastatic activity in human MIA PaCa-2 cells in DMEM media assessed as inhibition of colony formation at 40 uM incubated for 24 hrs followed by replacement with fresh medium and measured after 10 days by crystal violet staining-based assay relative to control; type: functional
[11] = tested on: MIA PaCa-2; assay: Antitumor activity against human MIA PaCa-2 cells xenografted in athymic BALB/c-nu mouse assessed as tumor growth inhibition at 10 mg/kg/day, ip administered five times per week for 4 weeks relative to control; type: functional; settings: MIA PaCa-2, 672 h, read-out: TGI
[12] = tested on: MIA PaCa-2; assay: Antitumor activity against human MIA PaCa-2 cells xenografted in athymic BALB/c-nu mouse assessed as reduction in p-Akt level in tumor at 2 to 10 mg/kg/day, ip administered five times per week for 4 weeks by immunohistochemistry analysis; type: functional, organism-based; settings: dose 2-10 mg/kg/day
[13] = tested on: MIA PaCa-2; assay: Antitumor activity against human MIA PaCa-2 cells xenografted in athymic BALB/c-nu mouse assessed as fold change in proline level in tumor at 10 mg/kg/day, ip administered five times per week for 4 weeks by LC-MS analysis; type: functional
[14] = tested on: MIA PaCa-2; assay: Preferential cytotoxicity against human MIA PaCa-2 cells in nutrient-deprived medium assessed as alteration in cell morphology by measuring rupture of cell membrane at 5 uM measured after 24 hrs by acridine orange and ethidium bromide dual fluorescent staining based imaging analysis; type: functional
[15] = tested on: MIA PaCa-2; assay: Inhibition of Akt/mTOR signaling pathway in human MIA PaCa-2 cells in DMEM media assessed as reduction in AKT phosphorylation at S473 residue at 5 to 20 uM measured after 6 hrs by Western blot analysis; type: cell-based; settings: dose 5-20 µM
[16] = tested on: MIA PaCa-2; assay: Antitumor activity against human MIA PaCa-2 cells xenografted in athymic BALB/c-nu mouse assessed as reduction in mTOR phosphorylation at S2481 residue in tumor at 10 mg/kg/day, ip administered five times per week for 4 weeks by Western blot analysis; type: functional, organism-based
[17] = tested on: MIA PaCa-2; assay: Antitumor activity against human MIA PaCa-2 cells xenografted in athymic BALB/c-nu mouse assessed as fold change in benzoic acid level in tumor at 10 mg/kg/day, ip administered five times per week for 4 weeks by LC-MS analysis; type: functional
[18] = tested on: MIA PaCa-2; assay: Antitumor activity against human MIA PaCa-2 cells xenografted in athymic BALB/c-nu mouse assessed as fold change in desthiobiotin level in tumor at 10 mg/kg/day, ip administered five times per week for 4 weeks by LC-MS analysis; type: functional
[19] = tested on: MIA PaCa-2; assay: Antitumor activity against human MIA PaCa-2 cells xenografted in athymic BALB/c-nu mouse assessed as fold change in D-glucuronicacid level in tumor at 10 mg/kg/day, ip administered five times per week for 4 weeks by LC-MS analysis; type: functional
[20] = tested on: MIA PaCa-2; assay: Antitumor activity against human MIA PaCa-2 cells xenografted in athymic BALB/c-nu mouse assessed as fold change in 1-aminocyclopropanecarboxylicacid level in tumor at 2 mg/kg/day, ip administered five times per week for 4 weeks by LC-MS analysis; type: functional
[21] = tested on: MIA PaCa-2; assay: Antitumor activity against human MIA PaCa-2 cells xenografted in athymic BALB/c-nu mouse assessed as fold change in 3-sulfolactic acid level in tumor at 2 mg/kg/day, ip administered five times per week for 4 weeks by LC-MS analysis; type: functional
[22] = tested on: MIA PaCa-2; assay: Antitumor activity against human MIA PaCa-2 cells xenografted in athymic BALB/c-nu mouse assessed as fold change in 4-(methylthio)-2-oxobutyric acid level in tumor at 2 mg/kg/day, ip administered five times per week for 4 weeks by LC-MS analysis; type: functional
[23] = tested on: MIA PaCa-2; assay: Antitumor activity against human MIA PaCa-2 cells xenografted in athymic BALB/c-nu mouse assessed as fold change in cytosine level in tumor at 2 mg/kg/day, ip administered five times per week for 4 weeks by LC-MS analysis; type: functional
[24] = tested on: MIA PaCa-2; assay: Antitumor activity against human MIA PaCa-2 cells xenografted in athymic BALB/c-nu mouse assessed as fold change in D-glucosamine 6-phosphate level in tumor at 2 mg/kg/day, ip administered five times per week for 4 weeks by LC-MS analysis; type: functional
[25] = tested on: MIA PaCa-2; assay: Antitumor activity against human MIA PaCa-2 cells xenografted in athymic BALB/c-nu mouse assessed as fold change in glycerol 3-phosphate level in tumor at 2 mg/kg/day, ip administered five times per week for 4 weeks by LC-MS analysis; type: functional
[26] = tested on: MIA PaCa-2; assay: Antitumor activity against human MIA PaCa-2 cells xenografted in athymic BALB/c-nu mouse assessed as fold change in leucine level in tumor at 2 mg/kg/day, ip administered five times per week for 4 weeks by LC-MS analysis; type: functional
[27] = tested on: MIA PaCa-2; assay: Antitumor activity against human MIA PaCa-2 cells xenografted in athymic BALB/c-nu mouse assessed as fold change in lysine level in tumor at 2 mg/kg/day, ip administered five times per week for 4 weeks by LC-MS analysis; type: functional
[28] = Toxicity in athymic BALB/c-nu mouse xenografted with human MIA PaCa-2 cells assessed as animal death at 2 to 10 mg/kg/day, ip administered five times per week for 4 weeks; type: organism-based; settings: in vivo, 672 h, dose 2-10 mg/kg/day

COc1cc(O)c(C(=O)[C@@H]2CC=C(CCC=C(C)C)C[C@H]2c2ccccc2)c(O)c1
fold change (FC) [1]: 0.4
fold change (FC) [2]: 0.43
Activity [3]: Active
inhibition [4]: Dose-Dependent Effect
inhibition [5]: Dose-Dependent Effect
inhibition [6]: Dose-Dependent Effect
inhibition [7]: Dose-Dependent Effect
Activity [8]: 87%
inhibition at 20 µM [9]: 82%
inhibition at 40 µM [10]: 99%
inhibition in vivo at 10 mg/kg/day [11]: 68%
Activity [12]: Active
fold change (FC) [13]: 0.53
Activity [14]: Active
inhibition [15]: inactive
Activity [16]: Active
fold change (FC) [17]: 0.43
fold change (FC) [18]: 0.4
fold change (FC) [19]: 0.68
fold change (FC) [20]: 0.8
fold change (FC) [21]: 0.48
fold change (FC) [22]: 0.48
fold change (FC) [23]: 0.73
fold change (FC) [24]: 0.4
fold change (FC) [25]: 0.4
fold change (FC) [26]: 0.43
fold change (FC) [27]: 0.32
Activity [28]: Non-Toxic
